Measurements from patent US20100041089A1, “IMPROVED METHOD FOR DETECTING CHEMICAL […]” (priority 2006, published 2010).

System: yeast genes (expressed mRNA)
Assay: DNA chip measurement of expressed mRNA of yeast genes after culture with a toxic chemical substance
Assay type: cell-based, Saccharomyces cerevisiae S288C
Conditions: for level of expressed mRNA in the presence of chemical substance / level in the absence of chemical substance: cultured two hours with the chemical substance; for The level of expressed mRNA in the presence of chemical substance/The level of expressed mRNA in the absence of chemical substance: cultured two hours with substance
Summary of the method: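 Yeast S288C, YPD 25° C; toxicant at log phase, 2 h, sublethal growth-inhibiting conc.; no-chemical control. Hot SDS/acetate RNA extraction, oligo-dT mRNA, Cy3/Cy5-dUTP RT. Whole-genome chip, 65° C >12 h. Readout: treated/control intensity ratio, ≥2 significant.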

SMILES: [Cl][Cd][Cl] [(2), CdCl2]
- level of expressed mRNA in the presence of chemical substance / level in the absence of chemical substance (yeast gene YJL097W): 1.1
- The level of expressed mRNA in the presence of chemical substance/The level of expressed mRNA in the absence of chemical substance (yeast gene YJL151C): 2.4
- The level of expressed mRNA in the presence of chemical substance/The level of expressed mRNA in the absence of chemical substance (yeast gene YJL152W): 1.5
- The level of expressed mRNA in the presence of chemical substance/The level of expressed mRNA in the absence of chemical substance (yeast gene YJL161W): 2.2
- The level of expressed mRNA in the presence of chemical substance/The level of expressed mRNA in the absence of chemical substance (yeast gene YJL171C): 0.7
- The level of expressed mRNA in the presence of chemical substance/The level of expressed mRNA in the absence of chemical substance (yeast gene YJR008W): 1.5
- level of expressed mRNA in the presence of chemical substance / level in the absence of chemical substance (yeast gene YJR030C): 4.4
- The level of expressed mRNA in the presence of chemical substance/The level of expressed mRNA in the absence of chemical substance (yeast gene YJR054W): 0.9
- level of expressed mRNA in the presence of chemical substance / level in the absence of chemical substance (yeast gene YKL051W): 1.1
- The level of expressed mRNA in the presence of chemical substance/The level of expressed mRNA in the absence of chemical substance (yeast gene YKL071W): 3.8
- The level of expressed mRNA in the presence of chemical substance/The level of expressed mRNA in the absence of chemical substance (yeast gene YKL086W): 1.1
- level of expressed mRNA in the presence of chemical substance / level in the absence of chemical substance (yeast gene YKL097C): 1.6
- level of expressed mRNA in the presence of chemical substance / level in the absence of chemical substance (yeast gene YKL100C): 1.1
- The level of expressed mRNA in the presence of chemical substance/The level of expressed mRNA in the absence of chemical substance (yeast gene YKL151C): 3.1
- The level of expressed mRNA in the presence of chemical substance/The level of expressed mRNA in the absence of chemical substance (yeast gene YKL153W): 1.4
- The level of expressed mRNA in the presence of chemical substance/The level of expressed mRNA in the absence of chemical substance (yeast gene YKL195W): 0.5
- level of expressed mRNA in the presence of chemical substance / level in the absence of chemical substance (yeast gene YKR040C): 3.7
- The level of expressed mRNA in the presence of chemical substance/The level of expressed mRNA in the absence of chemical substance (yeast gene YKR091W): 2.3
- The level of expressed mRNA in the presence of chemical substance/The level of expressed mRNA in the absence of chemical substance (yeast gene YLR054C): 1.5
- The level of expressed mRNA in the presence of chemical substance/The level of expressed mRNA in the absence of chemical substance (yeast gene YLR149C): 1.9
- The level of expressed mRNA in the presence of chemical substance/The level of expressed mRNA in the absence of chemical substance (yeast gene YLR152C): 1.3
- The level of expressed mRNA in the presence of chemical substance/The level of expressed mRNA in the absence of chemical substance (yeast gene YLR194C): 2.2
- level of expressed mRNA in the presence of chemical substance / level in the absence of chemical substance (yeast gene YLR226W): 1.8
- The level of expressed mRNA in the presence of chemical substance/The level of expressed mRNA in the absence of chemical substance (yeast gene YLR324W): 1.2
- level of expressed mRNA in the presence of chemical substance / level in the absence of chemical substance (yeast gene YLR338W): 1.6
- The level of expressed mRNA in the presence of chemical substance/The level of expressed mRNA in the absence of chemical substance (yeast gene YLR350W): 1.9
- The level of expressed mRNA in the presence of chemical substance/The level of expressed mRNA in the absence of chemical substance (yeast gene YLR387C): 1.6
- level of expressed mRNA in the presence of chemical substance / level in the absence of chemical substance (yeast gene YLR392C): 0.9
- level of expressed mRNA in the presence of chemical substance / level in the absence of chemical substance (yeast gene YLR415C): 2.4
- level of expressed mRNA in the presence of chemical substance / level in the absence of chemical substance (yeast gene YLR427W): 1.0
- The level of expressed mRNA in the presence of chemical substance/The level of expressed mRNA in the absence of chemical substance (yeast gene YLR460C): 2.1
- level of expressed mRNA in the presence of chemical substance / level in the absence of chemical substance (yeast gene YML013W): 1.0
- level of expressed mRNA in the presence of chemical substance / level in the absence of chemical substance (yeast gene YML029W): 1.5
- level of expressed mRNA in the presence of chemical substance / level in the absence of chemical substance (yeast gene YML041C): 1.0
- level of expressed mRNA in the presence of chemical substance / level in the absence of chemical substance (yeast gene YML079W): 1.7
- The level of expressed mRNA in the presence of chemical substance/The level of expressed mRNA in the absence of chemical substance (yeast gene YML117W): 2.2
- The level of expressed mRNA in the presence of chemical substance/The level of expressed mRNA in the absence of chemical substance (yeast gene YMR009W): 1.9
- The level of expressed mRNA in the presence of chemical substance/The level of expressed mRNA in the absence of chemical substance (yeast gene YMR067C): 0.9
- level of expressed mRNA in the presence of chemical substance / level in the absence of chemical substance (yeast gene YMR068W): 0.7
- level of expressed mRNA in the presence of chemical substance / level in the absence of chemical substance (yeast gene YMR071C): 2.0
- The level of expressed mRNA in the presence of chemical substance/The level of expressed mRNA in the absence of chemical substance (yeast gene YMR090W): 9.5
- The level of expressed mRNA in the presence of chemical substance/The level of expressed mRNA in the absence of chemical substance (yeast gene YMR095C): 2.0
- The level of expressed mRNA in the presence of chemical substance/The level of expressed mRNA in the absence of chemical substance (yeast gene YMR097C): 1.0
- The level of expressed mRNA in the presence of chemical substance/The level of expressed mRNA in the absence of chemical substance (yeast gene YMR102C): 2.9
- The level of expressed mRNA in the presence of chemical substance/The level of expressed mRNA in the absence of chemical substance (yeast gene YMR107W): 3.9
- level of expressed mRNA in the presence of chemical substance / level in the absence of chemical substance (yeast gene YMR160W): 1.3
- The level of expressed mRNA in the presence of chemical substance/The level of expressed mRNA in the absence of chemical substance (yeast gene YMR180C): 0.9
- The level of expressed mRNA in the presence of chemical substance/The level of expressed mRNA in the absence of chemical substance (yeast gene YMR184W): 5.4
- The level of expressed mRNA in the presence of chemical substance/The level of expressed mRNA in the absence of chemical substance (yeast gene YMR191W): 2.4
- The level of expressed mRNA in the presence of chemical substance/The level of expressed mRNA in the absence of chemical substance (yeast gene YMR295C): 1.0
- The level of expressed mRNA in the presence of chemical substance/The level of expressed mRNA in the absence of chemical substance (yeast gene YMR316W): 2.9
- level of expressed mRNA in the presence of chemical substance / level in the absence of chemical substance (yeast gene YNL026W): 1.0
- The level of expressed mRNA in the presence of chemical substance/The level of expressed mRNA in the absence of chemical substance (yeast gene YNL044W): 0.9
